Assay: Precipitate formation from sodium deoxycholate solutions after 1 week of storage (visual inspection)
Format: physicochemical
Settings: 1 week storage
Description: Solutions of sodium deoxycholate at different concentration were evaluated for precipitate formation after 1 week of storage. […] By visual inspection, the amount of precipitation can be rated as tabulated below.

## C[C@H](CCC(=O)[O-])[C@H]1CCC2C3CC[C@@H]4C[C@H](O)CC[C@]4(C)C3C[C@H](O)[C@@]21C.[Na+] (stereo partly drawn) [Sodium Deoxycholate, sodium (4R)-4-((3R,5R,10S,12S,13R,17R)-3,12-dihydroxy-10,13-dimethylhexadecahydro-1H-cyclopenta[a]phenanthren-17-yl)pentanoate]
0.5% w/v
  Precipitation, Comment: Significant amounts of precipitate visible to the naked eye
1.0% w/v
  Precipitation, Comment: Significant amounts of precipitate visible to the naked eye

Reference: US20220072011A1, “TREATMENTS OF ACCUMULATED FAT WITH DEOXYCHOLIC ACID AND SALTS THEREOF” (Allergan Sales, LLC, priority 2015, published 2022)
